Results taken from patent publication US20080051454A1, “Compositions and methods for transient receptor potential vanilloid (TRPV) channel mediated treatments” (The Board of Trustees Operating Michigan State University, priority 2006, published 2008).

Tests used:
WT and TRPV1−/− hearts = test: OLDA-induced CGRP and SP release from hearts (radioimmunoassay); set-up: species or system mouse
[1] = test system: Wistar rats (Con-NS, Con-HS, Cap-NS, Cap-HS); test: Natriuretic, diuretic and depressor effects of i.v. diuretics in control and capsaicin-pretreated rats on normal or high sodium diet; type: in vivo, rat; details: intravenous
Protocol: (a) Urine flow rate. (b) Urine sodium excretion. […] (c) Mean arterial pressure. […] Vehicle; trichlormethiazide.
(a) Urine flow rate. (b) Urine sodium excretion. […] (c) Mean arterial pressure.
(a) Urine flow rate. (b) Urine sodium excretion. […] (c) Mean arterial pressure. […] Vehicle; amiloride.
Design and methods Neonatal Wistar rats were treated with capsaicin or vehicle. Seven-week-old male rats were treated for 2 weeks with: vehicle plus a normal (Con-NS) or high (Con-HS) sodium diet, and capsaicin pretreatment plus a normal (Cap-NS) or high (Cap-HS) sodium diet. Mean arterial pressure (MAP), renal excretory function, and protein expression determined by Western blot were performed.

[2] = test system: high-salt plus capsaicin pretreated rats; details: rat, in vivo; cited from earlier work
rats = test: Mean arterial pressure before and after left renal pelvis perfusion (LRPP) treatments; type: in vivo, rat; details: for Mean arterial pressure, Treatment: after treatment; for Mean arterial pressure, Baseline: before treatment
Excerpt: Urine flow rate (V, FIG. 3a) and urinary sodium excretion (UNaV, FIG. 3b) of the contralateral kidney are shown (n=5-6 in each group). +vs baseline and all other groups, +p<0.05.

WT hearts [3] = test: Lactate dehydrogenase (LDH) release during I/R; set-up: species or system mouse
Protocol: Lactate dehydrogenase (LDH) release: In addition to the measurement of cardiac function, cardiac injury was assessed by measuring LDH release. Perfusion effluent was collected during the first 10 minutes to 20 minutes of I/R and stored at […] until analyzed. Total LDH levels were determined with the use of a CytoTox 96 assay (Promega). The data were expressed as absorbance units released per milliliter per minute per gram of heart wet tissues (Turnbull et al., Am J Physiol Heart Circ Physiol 290: […]-9, 2006; herein incorporated by reference).

TRPV1−/− hearts = test: Preconditioning (PC) protection against I/R in Langendorff hearts with receptor antagonists, TRPV1-null; set-up: species or system mouse; details: CAPZ 10^−7 M, CGRP8-37 10^−6 M, RP67580 10^−7 M
Protocol: Male TRPV1 gene knockout (TRPV1-/-) strain B6.129S[…][…]^tm1Jul and matching control wild type (WT) strain C57BL/6J mice were used (Jackson Laboratory, Bar Harbor, Me.). Mice were heparinized (500 U/kg i.p.) and anesthetized with pentobarbital sodium (50 mg/kg i.p.). […] The distal end of the catheter was connected to a […] Performance Analyzer via a pressure transducer. Coronary flow (CF) was continuously measured using an ultrasonic flow probe placed in the aortic perfusion line. Hearts were paced at 400 bpm except during ischemic PC and sustained global ischemia to avoid inducing excessive ventricular tachyarrhythmia during reperfusion, and pacing was reinitiated 2 minutes after reperfusion. Left ventricular developed pressure (LVDP, peak systolic minuses LVEDP) and LV peak positive […]) during isovolumic contraction were used as indices of LV systolic function; LVEDP and the peak negative […] used as indices of LV diastolic function. […] Non-preconditioned hearts were time-matched perfused with the same duration as that of preconditioned hearts. Group 1: Controls. As normal controls (nonischemic), WT and TRPV1-/- hearts were perfused for 130 minutes. For I/R controls, WT and TRPV1-/- hearts were first perfused with Krebs-Henseleit buffer for 55 min (time-matched perfusion of the equilibration period plus the PC period), and subsequently subjected to 30 minutes of no-flow normothermic global ischemia followed by 40-minutes of reperfusion. Group 2: PC. […] The hearts were subjected to 30 minutes of no-flow normothermic global ischemia followed by 40-minutes of reperfusion as that of I/R control groups. Group 3: PC plus capsazepine (CAPZ). […] Two additional concentrations of CAPZ, 10^-6M and 10^-8 M, were used in WT hearts. An additional drug control was added. After a 20-minute equilibration period, WT hearts were perfused with CAPZ (10^-7 M) for 10 minutes without PC, followed by perfusion with Krebs-Henseleit buffer for 25 minutes (time-matched perfusion of the PC period) and then subjected to I/R. Group 4: […] […]

WT hearts [4] = test: Preconditioning (PC) protection against I/R in Langendorff hearts with receptor antagonists, wild type; set-up: species or system mouse
Protocol: Male TRPV1 gene knockout (TRPV1-/-) strain B6.129S[…][…]^tm1Jul and matching control wild type (WT) strain C57BL/6J mice were used (Jackson Laboratory, Bar Harbor, Me.). Mice were heparinized (500 U/kg i.p.) and anesthetized with pentobarbital sodium (50 mg/kg i.p.). […] The distal end of the catheter was connected to a […] Performance Analyzer via a pressure transducer. Coronary flow (CF) was continuously measured using an ultrasonic flow probe placed in the aortic perfusion line. Hearts were paced at 400 bpm except during ischemic PC and sustained global ischemia to avoid inducing excessive ventricular tachyarrhythmia during reperfusion, and pacing was reinitiated 2 minutes after reperfusion. Left ventricular developed pressure (LVDP, peak systolic minuses LVEDP) and LV peak positive […]) during isovolumic contraction were used as indices of LV systolic function; LVEDP and the peak negative […] used as indices of LV diastolic function. […] Non-preconditioned hearts were time-matched perfused with the same duration as that of preconditioned hearts. Group 1: Controls. As normal controls (nonischemic), WT and TRPV1-/- hearts were perfused for 130 minutes. For I/R controls, WT and TRPV1-/- hearts were first perfused with Krebs-Henseleit buffer for 55 min (time-matched perfusion of the equilibration period plus the PC period), and subsequently subjected to 30 minutes of no-flow normothermic global ischemia followed by 40-minutes of reperfusion. Group 2: PC. […] The hearts were subjected to 30 minutes of no-flow normothermic global ischemia followed by 40-minutes of reperfusion as that of I/R control groups. Group 3: PC plus capsazepine (CAPZ). […] Two additional concentrations of CAPZ, 10^-6M and 10^-8 M, were used in WT hearts. An additional drug control was added. After a 20-minute equilibration period, WT hearts were perfused with CAPZ (10^-7 M) for 10 minutes without PC, followed by perfusion with Krebs-Henseleit buffer for 25 minutes (time-matched perfusion of the PC period) and then subjected to I/R. Group 4: […] Two additional concentrations of CGRP8-37, 10^-5 M and 10^-7 M, were used in WT hearts. An additional drug control of CGRP8-37 was added as that of the CAPZ control group. Group 5: PC plus RP67580. To determine the role of endogenous SP during PC, hearts from WT and TRPV1-/-mice were perfused as that of CAPZ with RP67580 (10^-7 M), a selective neurokinin-1 (NK1) receptor antagonist. Two additional concentrations of RP67580, 10^-6 M and 10^-8 M, were used in WT hearts. An additional drug control of RP67580 was added as that of the CAPZ control group.

hearts of WT mice = test: Langendorff perfused heart, ischemia and reperfusion (I/R) with OLDA, wild type; set-up: species or system mouse; details: antagonist 1×10^−6 M
Protocol: The following measurements were made on the two types of heart tissue: left ventricular end-diastolic pressure (LVEDP), left ventricular developed pressure (LVDP), coronary flow (CF), and left ventricular (LV) peak positive rate of pressure change/rate of time change (+dP/dt) were evaluated after I/R.

male Wistar rats = test: Depressor effect of 20-HETE analog DSR given IV, with or without antagonists; type: in vivo, rat; details: DSR 1 mg/kg with CAPZ 3 mg/kg, RP67580 4 mg/kg or CGRP 8-37 3 mg/kg

## COc1ccc2c(c[n+](C)c3c4cc5c(cc4ccc23)OCO5)c1OC [chelerythrine]
WT and TRPV1−/− hearts
  effect on OLDA-increased CGRP and SP release in WT hearts: blocked

## N=C(N)NC(=O)c1nc(Cl)c(N)nc1N [amiloride]
[1]
  effect on MAP (words): no effect on MAP in any group
  time of peak urine flow rate (UFR) after injection: 10 min
  urine flow / urine sodium excretion (words): significantly increased
[1]; listed as Amiloride
  effect on MAP (words): no effect
  urine flow / urine sodium excretion (words): no effect

## CCCCc1nc(Cl)c(CO)n1Cc1ccc(-c2ccccc2-c2nn[nH]n2)cc1 [losartan]
[2]
  effect on the impaired natriuretic response: unable to prevent
  prevention of the development of salt-induced hypertension: prevented

## [Cl-].[K+] [150 KCl, KCl]
rats
  Mean arterial pressure, Treatment: 125 ± 4 mmHg
  Mean arterial pressure, Baseline: 123 ± 6 mmHg

## COc1ccccc1CC(=N)N1C[C@@H]2C(=O)CCC(c3ccccc3)(c3ccccc3)[C@@H]2C1 [RP67580]
WT hearts [3]
  effect on PC protection assessed by LDH levels after I/R in WT hearts: abolished
TRPV1−/− hearts
  effect on these parameters in TRPV1−/− hearts: no effect
WT hearts [4]
  effect on cardiac function in WT hearts without I/R: no effect on cardiac function
WT hearts [4]; CAPZ 10^−7 M, CGRP8-37 10^−6 M, RP67580 10^−7 M
  effect on PC-induced cardiac protection (LVEDP, LVDP, CF, +dP/dt, −dP/dt) in WT hearts: abolished
WT hearts [4]; PC plus I/R
  effect on CF in WT hearts: no effect on CF
Hearts of WT mice
  effect on protective effect of OLDA in WT hearts: abolished
Male Wistar rats
  DSR induced-depressor effect after antagonist: 9.4±2.3 mmHg

## [Cl-].[Na+] [600 mM NaCl, NaCl]
rats
  Mean arterial pressure, Treatment: 117 ± 2 mmHg
  Mean arterial pressure, Baseline: 115 ± 2 mmHg
